# How the values were obtained:
# SMN2 (ISS-N1 intron 7) [1] = experiment: FL-SMN2 expression relative to Δ7 SMN2 transcripts by RT-qPCR in tissues of severe SMA mice; format: in vivo, mouse; conditions: both doses (40 and 80 mg/kg s.c. at PD0), tissues at PD7, peripheral and CNS tissues, RT-qPCR ΔΔCt
# Description: To evaluate the change of FL-SMN2 expression relative to Δ7 SMN2 transcripts, we used real-time quantitative PCR (RT-qPCR) at PD7; the mice were treated with DG9-PMO at PD0. In both doses, DG9-PMO treatment led to a 4- to 30-fold higher FL-SMN2 expression than NT control in both peripheral and CNS tissues (Figure 2A and Supplemental Figure 3A). It also led to a ~5-fold increase in FL-SMN2 expression when compared with unconjugated PMO, MOE, and R6G-PMO treatments in the majority of the tissues (Figure 2A, Supplemental Figure 3A, and Supplemental Figure 1F). […] SMN levels were higher in CNS tissues in the DG9-PMO–treated than MOE-treated mice, though no statistical significance was seen. […] SMN levels were similar in DG9-PMO and MOE in the tissues collected from mice at PD30.
# Injections were carried out using a 30-gauge Hamilton syringe. SMA mice identified following genotyping were randomly assigned to a treatment group. […]
# (§1) Frozen tissues harvested at PD7 were sectioned using a cryostat (Leica CM 1950) into 20 μm sections. […] The relative gene expression for FL-SMN2 over the deletion of SMN2 transcripts without exon 7 was normalized to the NT control samples and analyzed using the ΔΔCt method. The expression of denervation markers relative to 18S was normalized to the healthy heterozygous control samples collected at PD30 and analyzed using the ΔΔCt method.
# severe SMA mouse model [2] = experiment: Hind limb suspension (HLS) assay (tube test); format: in vivo; conditions: 40 mg/kg s.c. at PD0, PD2–PD12
# Source text: To evaluate the effects of systemic DG9-PMO treatment on muscle strength and the function of motor neurons, we used several functional tests and compared motor function in the treated and NT mice at various time points. We performed the hind limb suspension (HLS) assay and the righting reflex test during the early weeks of life. […] It should be noted that the results beyond PD12 are biased, as only the healthiest unconjugated PMO–, MOE-, and R6G-PMO–treated mice survived to these time points.
# This test was performed on neonatal mice PD2–PD12 as described in Treat NMD protocol SMA_M.2.2.001 ([72]). Briefly, neonatal mice were suspended on their hind limbs from a tube. They were scored based on the position of the hind limbs and their latency to fall was recorded with a 30-second cutoff. Each neonatal pup underwent 3 trials, with a 15-minute break between each trial. The average score was noted by the observer under a blinded test protocol.
# severe SMA mouse model [3] = experiment: Forelimb grip strength; format: in vivo; conditions: 40 mg/kg s.c. at PD0, normalized to body weight
# Description: This improvement was further bolstered by the forelimb grip strength assessment at PD30 in the DG9-PMO–treated mice (Figure 1E and Supplemental Figure 2A). […] We evaluated the relationship between the forelimb data and the sex at PD30. […] We also performed a rotarod test PD30 for the 40 mg/kg groups to assess their overall muscle coordination and balance ([41]). We observed that although the unconjugated PMO–treated mice had reduced forelimb grip strength, they were able to balance themselves on the rotating beam similar to DG9-PMO–treated mice owing to their smaller size and weight (Supplemental Figure 2C). Since we had only 2 MOE mice in this experiment, they were not included in the statistics. Taken together, based on conclusive findings from these functional tests, systemic injection of DG9-PMO improves motor function and muscle strength in both neonatal and adult SMA mice.
# This assay was conducted as described in Treat NMD protocol SMA_M.2.1.002 ([73]). In short, the mouse is placed on the wire mesh of an automated grip strength meter (Columbus Instruments) such that only the front paws are allowed to grip the metal grid. The mouse is steadily pulled with the help of its tail, such that it lets go of the grid completely. PD30 and PD60 mice were used. Each mouse underwent 3 trials.
# [4] = ELISA, PMO uptake in mild SMA model (F0 mice) injected at PD5; format: in vivo, mouse; conditions: 40 mg/kg s.c. at PD5, tissues at PD7, ELISA
# Source text: (§2) To target the motor neurons in the CNS via systemic administration, AOs need to cross the BBB in patients with SMA. For this study, we used a milder SMA model (F0) (Smn^–/– SMN2^+/+) with 4 SMN2 copies obtained from Jackson Laboratory (JAX 005058) that are viable, are fertile, and have shortened, thick tails since severe SMA model mice have a median survival of only 8 days, making it difficult to evaluate the treatment efficacy when the BBB is mature. […] To determine the ability of DG9-PMO to reach the CNS, we subcutaneously injected 40 mg/kg or 80 mg/kg fluorescently tagged DG9-PMO into F0 mice at PD0 or PD5. […] We also performed an ELISA to examine the biodistribution of unconjugated PMO and DG9-PMO at PD7.
# ELISA was performed as described previously ([51], [69]). In brief, protein was extracted from frozen tissue sections (~20 μm) using RIPA buffer with cOmplete, Mini, EDTA-free protease inhibitor cocktail. The probes (Integrated DNA Technologies) were designed complementary to the PMO sequence with phosphorothioated backbones at the 5′ and 3′ ends. The 5′ and 3′ ends were labeled with digoxigenin and biotin, respectively. […] Attophos AP Fluorescent Substrate (Promega) was added to the PMO/DG9-PMO probes, and fluorescence was detected at 444 nm excitation and 555 nm emission by using a monochromator SpectraMax M3 plate reader (Molecular Devices).
# SMN2 (ISS-N1 intron 7) [5] = experiment: FL-SMN2 expression by RT-qPCR in mild SMA model (F0 mice); format: in vivo, mouse; conditions: s.c. at PD5; PD7 (40 mg/kg) and PD13 (80 mg/kg)
# Source text: as §2, §1
compound,measurement,setting,value
CC(=O)N[C@@H](Cc1ccc(O)cc1)C(=O)N[C@@H](C)C(=O)N[C@H](CCCNC(=N)N)C(=O)N[C@H](C(=O)N[C@@H](CCCNC(=N)N)C(=O)N[C@@H](CCCNC(=N)N)C(=O)N[C@H](CCCNC(=N)N)C(=O)NCC(=O)N1CCC[C@H]1C(=O)N[C@@H](CCCNC(=N)N)C(=O)NCC(=O)N[C@@H](Cc1ccc(O)cc1)C(=O)N[C@@H](C)C(=O)N[C@H](CCCNC(=N)N)C(=O)N[C@H](C(=O)N[C@@H](CCCNC(=N)N)C(=O)N[C@@H](CCCNC(=N)N)C(=O)N[C@H](CCCNC(=N)N)C(=O)NCC(=O)N1CCC[C@H]1C(=O)N[C@@H](CCCNC(=N)N)C(=O)N[C@H](CCCNC(=N)N)C(=O)N1C[C@@H](COP(=O)(N(C)C)N2C[C@@H](COP(=O)(N(C)C)N3C[C@@H](COP(=O)(N(C)C)N4C[C@@H](COP(=O)(N(C)C)N5C[C@@H](COP(=O)(N(C)C)N6C[C@@H](COP(=O)(N(C)C)N7C[C@@H](COP(=O)(N(C)C)N8C[C@@H](COP(=O)(N(C)C)N9C[C@@H](COP(=O)(N(C)C)N%10C[C@@H](COP(=O)(N(C)C)N%11C[C@@H](COP(=O)(N(C)C)N%12C[C@@H](COP(=O)(N(C)C)N%13C[C@@H](COP(=O)(N(C)C)N%14C[C@@H](COP(=O)(N(C)C)N%15C[C@@H](COP(=O)(N(C)C)N%16C[C@@H](COP(=O)(N(C)C)N%17C[C@@H](COP(=O)(N(C)C)N%18C[C@@H](COP(=O)(N(C)C)N%19CCC(C(N)=O)CC%19)O[C@@H](n%19cc(C)c(=O)[nH]c%19=O)C%18)O[C@@H](n%18ccc(N)nc%18=O)C%17)O[C@@H](n%17cnc%18c(N)ncnc%18%17)C%16)O[C@@H](n%16ccc(N)nc%16=O)C%15)O[C@@H](n%15cc(C)c(=O)[nH]c%15=O)C%14)O[C@@H](n%14cc(C)c(=O)[nH]c%14=O)C%13)O[C@@H](n%13cc(C)c(=O)[nH]c%13=O)C%12)O[C@@H](n%12ccc(N)nc%12=O)C%11)O[C@@H](n%11cnc%12c(N)ncnc%12%11)C%10)O[C@@H](n%10cc(C)c(=O)[nH]c%10=O)C9)O[C@@H](n9cnc%10c(N)ncnc%109)C8)O[C@@H](n8cnc9c(N)ncnc98)C7)O[C@@H](n7cc(C)c(=O)[nH]c7=O)C6)O[C@@H](n6cnc7c(=O)[nH]c(N)nc76)C5)O[C@@H](n5ccc(N)nc5=O)C4)O[C@@H](n4cc(C)c(=O)[nH]c4=O)C3)O[C@@H](n3cnc4c(=O)[nH]c(N)nc43)C2)O[C@@H](n2cnc3c(=O)[nH]c(N)nc32)C1)C(C)C)C(C)C (some centres unmarked) [DG9-PMO],"FL-SMN2 expression (relative to Δ7 SMN2), fold higher than NT control",SMN2 (ISS-N1 intron 7) [1],4- to 30 fold
same,hind limb strength (HLS score),severe SMA mouse model [2],hind limb strength comparable to the Hets at PD12
same,forelimb grip force at PD30,severe SMA mouse model [3],forelimb grip force comparable to the Hets and significantly higher than the unconjugated PMO– and MOE-treated mice
same,"uptake of PMO versus unconjugated PMO, mild SMA model (F0)",[4],significantly increased the uptake of PMO in the CNS and peripheral tissues
same,"FL-SMN2 expression, mild SMA model (F0)",SMN2 (ISS-N1 intron 7) [5],significant increase in the FL-SMN2 expression in both the CNS and peripheral tissues

# Reference: PMC10077475, “DG9-conjugated morpholino rescues phenotype in SMA mice by reaching the CNS via a subcutaneous administration” (JCI Insight, 2023)
